From patent publication US20080081781A1, “Methods and compositions for the treatment of metabolic syndrome” (priority 2004, published 2008)
Like-named read-outs stand apart in the source and are kept apart here.

Key:
[1] = test system: patients with metabolic syndrome; assay: Berberine in patients with metabolic syndrome (Table 10); type: in vivo, human; conditions: for Blood Pressure / Blood Cholesterol / Blood Insulin / Blood Triglyceride / FBG (fasting blood glucose): patients with metabolic syndrome (n = 28); for Blood Cholesterol / Blood Insulin / Blood Triglyceride / FBG (fasting blood glucose): means ± SEs
From the text: Twenty-eight patients 28 (male/female, 17/11; age, 57±8 y) were diagnosed as having metabolic syndrome if they met three or more of the following criteria: fasting blood glucose>7 mmol/L, serum triglyceride>1.7 mmol/L, fasting blood insulin>13 mmcU/mL, blood pressure>135/85 and/or BMI>23. (Eckel, Lancet 365 (9468), 1415-28 (2005); Executive Summary, JAMA 285, 2486-2497 (2001); Balkau, Diabet. Med. 16, 442-443 (1999)) The patients were enrolled in this study at the Nanjing First Hospital, Nanjing, China. The patients were requested to end previous medications or therapies for at least two weeks prior to the beginning of the study.
The patients were then given 1 gram of berberine per day, orally for two months. Blood samples were taken both before and after two months of berberine treatment. Fasting blood levels of glucose, LDL-c, cholesterol, HDL-c, triglyceride and blood insulin were measured using standard methods routinely applied in hospitals. Liver and kidney functions were also monitored in the patients.

LDLR mRNA [2] = assay: LDLR mRNA stability after actinomycin D in HepG2 cells (Northern blot); type: cell-based, human; conditions: HepG2, berberine 15 hours then actinomycin D 5 μg/ml
Method: HepG2 cells were cultured and then left alone or treated with berberine for 15 hours. After 15 hours, actinomycin D (5 μg/ml) was added to cells at 0, 20, 40, 60, 90, 120, or 150 minutes. Total mRNA was isolated and analyzed by Northern blot for the amount of LDLR mRNA. […] In contrast, the mRNA stability of HMG-CoA reductase was not altered by berberine.

hyperlipidemia patients = conditions: for Cholesterol / HDL Protein / LDL Protein / Triglycerides: hyperlipidemia patients, n = 32
Method: After three months, fasting serum concentrations of cholesterol, triglycerides, HDL and LDL were measured using standard blood lipid tests.

LDLR mRNA [3] = assay: LDLR mRNA levels in Bel-7402 cells (quantitative RT-PCR); type: cell-based, human
Method: Bel-7402 cells were treated with 0, 0.5, 1, 2.5, 5, μg/ml of berberine or 2.5, 7.5 and 15 μg/ml of berberine sulfate. The cells were then centrifuged and washed and LDLR mRNA was extracted. LDLR mRNA levels were then measured using scan quantitative RT-PCR, (FIGS. 3 A and B).

InsR mRNA = InsR mRNA stability after actinomycin D in HepG2 cells (slot blot); type: cell-based, human; conditions: HepG2, […] 8 h then actinomycin D; untreated cells 4.4 hr
Method: HepG2 cells were treated or untreated with 7.5 μg/ml of berberine for 8 h. Then, 5 μg/ml of actinomycin D was added to block the transcription. Total cellular RNA was harvested at 0, 2, 4, 6, or 8 hours after actinomycin D treatment, and slot-blotted to nitrocellulose membranes as described above. The membranes were respectively hybridized with InsR and ACTB specific probes as described above, and bands were quantitated through densitometry. The InsR mRNA levels were normalized to ACTB, and their remaining percentages are plotted against time and the decaying rate or half-life of InsR mRNA was calculated (FIG. 21B).

InsR = assay: Cell surface InsR expression in HepG2 cells (flow cytometry); type: cell-based, human; conditions: HepG2, 2.5-15 μg/ml, eight hours
Method: The effect of berberine was also time-dependent. HepG2 cells were treated with 7.5 μg/ml for 0, 2, 4, 6, 8 or 24 hours and total RNA was isolated as described above for slot blot and RT-PCR assays of InsR mRNA and ACTB mRNA expression. The level of InsR mRNA increased 4 h after exposure of cells to berberine and reached the peak level of 2.5-fold of the control at 8 h; the expression of InsR mRNA remained high for at least 24 h (FIG. 16). HepG2 cells cultured with 0, 2.5, 5, 10 or 15 μg/ml of berberine or normal mouse IgG (FIG. 17) for eight hours then detached, washed and resuspended in FACS solution (PBS with 0.5% BSA and 0.02% sodium azide) at a density of 1×10^6 cells/ml. Cells were then incubated with a monoclonal antibody to InsR (NeoMarkers, Fremont, Calif.) at a final dilution of 1:100 (room temperature, 0.5 h). An isotype-matched, nonspecific mouse IgG was used as a control for nonspecific staining. Then, cells were washed and stained with FITC conjugated goat-anti-mouse IgG (Santa Cruz Biotech, 1:200 dilution). The fluorescent intensity was examined by flow cytometry (FAC Sort, Becton Dickinson, Calif.).

[4] = Excretion of berberine in rats (urine, fecal matter, gall bladder secretions); type: in vivo, rat; conditions: rat, in vivo, iv
Method: In a final series of animal model studies, rats were orally administered 3H-berberine. Forty-eight hours after administration, excretions were tested for the presence of berberine. 2.7% of the oral dose was measured in the urine and 86% of the oral dose was measured in the fecal matter.
Rats received intravenous berberine (9.25 MBq/kg). Six days accumulation of rat urine and fecal secretions were measured for the presence of berberine. 73% of the intravenous dose of the berberine was found in the accumulated urine in both metabolized and unmetabolized forms. 10.9% of the intravenous dose was found in the fecal matter.
Three rats were given berberine (9.25 MBq/kg) intravenously. After 24 hours, gall bladder secretions were collected and evaluated for the presence of berberine. There was 10.1±0.9% (x±SD, n=3) of berberine in the gall bladder secretions.

[5] = After BBR treatment 1 g/day, Bid, 2 months
[6] = After berberine treatment (3 months)
[7] = Before berberine treatment (baseline)

SMILES: COc1ccc2cc3[n+](cc2c1OC)CCc1cc2c(cc1-3)OCO2 [berberine]
- fasting blood glucose after treatment ([1]; 1 gram per day orally, two months, Mean ±SE, before 10.7±0.56): 8.0 ± 0.45 mmol/L
- cholesterol after treatment ([1]; 1 gram per day orally, two months, before 6.1±±0.11): 4.7 ± 0.16 mmol/L
- blood pressure after treatment ([1]; 1 gram per day orally, two months, before 156/86): 133/79
- Blood Pressure [1, 5]: 133/79
- Blood Cholesterol [1, 5]: 4.7 ± 0.16 mmol/L
- Blood Insulin [1, 5]: 12.1 ± 1.35 mlU/L
- Blood Triglyceride [1, 5]: 1.47 ± 0.14 mmol/L
- FBG (fasting blood glucose) [1, 5]: 8.0 ± 0.45 mmol/L
- Blood Pressure ([1]; Before BBR treatment): 156/86
- Blood Cholesterol ([1]; Before BBR treatment): 6.1 ± 0.11 mmol/L
- Blood Insulin ([1]; Before BBR treatment): 17 ± 2.15 mlU/L
- Blood Triglyceride ([1]; Before BBR treatment): 2.0 ± 0.22 mmol/L
- FBG (fasting blood glucose) ([1]; Before BBR treatment): 10.7 ± 0.56 mmol/L
- prolongation of turnover rate of LDLR transcript (LDLR mRNA [2]): approximately threefold
- kidney functions (creatine, blood urea nitrogen, total bilirubin) (hyperlipidemia patients; human, in vivo): did not change kidney functions
- reduction of alanine aminotransaminase (hyperlipidemia patients; human, in vivo): approximately 48%
- reduction of aspartate aminotransaminase (hyperlipidemia patients; human, in vivo): ~36%
- reduction of gamma glutamyl transpeptidase (hyperlipidemia patients; human, in vivo): ~41%
- side effects (hyperlipidemia patients; human, in vivo): no side effects were observed with the exception of one patient having mild constipation during treatment
- Cholesterol (hyperlipidemia patients; [6]): 4.2 ± 0.9 mmol/L
- HDL Protein (hyperlipidemia patients; [6]): 1.1 ± 0.3
- LDL Protein (hyperlipidemia patients; [6]): 2.4 ± 0.6 mmol/L
- Triglycerides (hyperlipidemia patients; [6]): 1.5 ± 0.9 mmol/L
- Cholesterol (hyperlipidemia patients; [7]): 5.9 ± 0.7 mmol/L
- HDL Protein (hyperlipidemia patients; [7]): 1.1 ± 0.3
- LDL Protein (hyperlipidemia patients; [7]): 3.2 ± 0.7 mmol/L
- Triglycerides (hyperlipidemia patients; [7]): 2.3 ± 1.8 mmol/L
- increase of LDLR mRNA expression (LDLR mRNA [3]; 5 μg/ml): 2.3 fold
- LDLR mRNA expression, dose dependence (LDLR mRNA [3]; berberine 0.5-5 μg/ml, berberine sulfate 2.5, 7.5, 15 μg/ml): increased LDLR mRNA expression in a dose dependent fashion
- turnover rate (half-life) of InsR transcript (InsR mRNA): 4.7 h
- cell surface InsR expression (InsR): increased cell surface expression
- intravenous dose found in accumulated urine (metabolized and unmetabolized forms) [4]: 73%
- intravenous dose found in the fecal matter [4]: 10.9%
